Values after ≈ are worked out from the molar mass of the structure shown. Like-named read-outs stand apart in the source and are kept apart here. One block for each compound: values may come before it.
What was measured:
[1] = clinical; conditions: human, in vivo
Description: The final treatment administered was 3.8 mg on a 10 cm^2 patch using an applicator with 0.52 Joule of application energy in the intracutaneous microneedle system described herein. The products tested were:
(§1) The array was applied to the center of a 5 cm^2 tan adhesive backing to form the patch. The patch was attached to the interior of a white to off-white polycarbonate ring co-molded with a desiccant, and this patch assembly was packaged in a foil pouch.
as §1
The array was applied to the center of a 10 cm^2 tan adhesive backing to form the patch. The patch was attached to the interior of a white to off-white polycarbonate ring co-molded with a desiccant, and this patch assembly was packaged in a foil pouch.
This was a single-center, open-label, randomized five-way crossover study (Part 1) followed by a sequential study of two additional treatments (Parts 2 and 3). After obtaining informed consent and establishing eligibility, each subject received each of the seven study treatments once, followed by in-clinic monitoring and extensive blood sample collection for pharmacokinetic analysis. […] Plasma samples from the initial dosing days were sent to the analytical laboratory for analysis, and tolerability for each of the dose levels was summarized. […] During Part 3, subjects received a single 3.8 mg patch (applied with a 0.52 J applicator) and also completed identical procedures to the previous dosing days. After completion of the seven dosing days, subjects were assessed one final time and dismissed from the study.
Twenty subjects were enrolled in the study, 10 males and 10 females. The subjects mean age was 29 years±3.5 years with a mean BMI of 24.4±3.5.
PK parameters were summarized by treatment group using descriptive statistics (arithmetic means, standard deviations, coefficients of variation, sample size, minimum, maximum, and median).
Graphs of apparent dose linearity and proportionality of PK parameters (AUCt, AUCinf and Cmax) were compiled.

[2] = cited from earlier work; for AUC0-last: Seaber1997
[3] = Solubility of zolmitriptan in 0.1 M acids at 2-8° C.; assay type: physicochemical; conditions: de-ionized water
Source text: The suspension was then centrifuged.

[4] = In vivo pig study: zolmitriptan distribution in skin by quantitative mass-spectrometry imaging; conditions: swine skin after 1-hour ADAM wear
Source text: Evidence of zolmitriptan diffusion within the skin was obtained by quantitative mass-specetrometry imaging. Analyses of the surface area of the stratum corneum, epidermis, and dermis indicate that the largest amount of zolmitriptan localized to the dermis.

[5] = test system: 5HT1B/1D; conditions: relative to zolmitriptan; cited from earlier work

Compound: CNS(=O)(=O)Cc1ccc2[nH]cc(CCN(C)C)c2c1 [Sumatriptan]
Tmax ([2]; marketed dosage form): about 2 hours
bioavailability ([2]; oral administration): about 15%

Compound: CN(C)CCc1c[nH]c2ccc(C[C@H]3COC(=O)N3)cc12 [Zolmitriptan oral tablet]
AUCinf ([1]; both, po, 2.5 mg): 27.19 ng · H/mL
Cmax ([1]; both, po, 2.5 mg): 3.77 ng/mL
Tmax ([1]; both, po, 2.5 mg): 1.79 h
AUC(0-t) ([1]; both, po, 2.5 mg, AUC2 hrs): 4.72 ng·h/mL
AUC(0-t) ([1]; both, po, 2.5 mg, AUCt): 22.2 ng·h/mL

Compound: CN(C)CCc1c[nH]c2ccc(C[C@H]3COC(=O)N3)cc12 [Zolmitriptan 10 mg oral, zolmitriptan]
AUC0-last ([2]; females (F)): 108.6 ng·h/mL
AUC0-last ([2]; males (M)): 84.4 ng·h/mL

Compound: CNCCc1c[nH]c2ccc(C[C@H]3COC(=O)N3)cc12 [N-desmethyl zolmitriptan]
5HT1B/1D potency, times that of the parent [5]: 2 to 6 times
metabolite concentrations relative to zolmitriptan ([2]; after zolmitriptan administration): about two-thirds

More lines, now with the values ahead:

t1/2 ([1]; sc): 1.14 H
Compound: CNS(=O)(=O)Cc1ccc2[nH]cc(CCN(C)C)c2c1 [Sumatriptan SC]

Solubility [3]: 1300 µg/mL (≈ 4.52 mM)
Percentage of Total Zolmitriptan ([4]; Dermis/hypodermis): 95.5
Percentage of Total Zolmitriptan ([4]; Epidermis): 2.7
Percentage of Total Zolmitriptan ([4]; Stratum corneum): 1.8
Compound: CN(C)CCc1c[nH]c2ccc(C[C@H]3COC(=O)N3)cc12 [Zolmitriptan, zolmitriptan]

AUC0-last Dose ([1]; po, 2.5 mg): 8.6 ng·h/mL/mg
Compound: CN(C)CCc1c[nH]c2ccc(C[C@H]3COC(=O)N3)cc12 [Oral Zolmi]

AUC0-last Dose ([1]; sc, 6 mg): 16.8 ng·h/mL/mg
Compound: CNS(=O)(=O)Cc1ccc2[nH]cc(CCN(C)C)c2c1 [SC Suma]
